Our source for the inhibition and IC50 values is patent publication US6262084A, “Compounds that inhibit the binding of integrins to their receptors” (Texas Biotechnology Corporation, priority 1999, dated 2001).

By inhibition is commonly meant the change of the read-out against control, counted positive when it falls. What is called IC50 is the concentration that inhibits the measured activity by half.

The assay addresses T1, α4β1 integrin (Homo sapiens, UniProt P05556+P13612).
T1 construct: Ramos cells fluorescently labeled with calcein; endogenous in cells; host or cells: Ramos cells
The experiment in a line: Inhibition of adhesion of calcein-labeled Ramos cells to CS1 (fibronectin) peptide-conjugated ovalbumin. Type of assay: cell-based. As to conditions: for inhibition at 100 µM: Ramos, compound at a concentration of 100 μM, read-out: % A (percent inhibition of cell adhesion); for IC50: dose required to give 50% inhibition, Ramos cell adhesion to CS1-ovalbumin, 30 minutes at 37° C. The method, then:
The ability of compounds of the present invention to inhibit binding is described in detail hereinafter in the Examples by a procedure in which a 26-amino acid peptide containing the CS1 sequence of fibroncctin with an N-terminal Cys was coupled to maleimide activated ovalbumin. Ovalbumin and CS1 conjugated ovalbumin were coated onto 96-well polystyrene plates at 5 μg/ml in TBS (50 mM Tris, pH 7.5; 150 mM NaCl) at 4° C. for 16 hours. The plates were washed three times with TBS and blocked with TBS containing 3% BSA at room temperature for 4 hours. Blocked plates were washed three times in binding buffer (TBS; 1 mM MgCl2; 1 mM CaCl2; 1 mM MnCl2) prior to assay. Ramos cells fluorescently labeled with calcein AMC-3099 were resuspended in binding buffer (10^7 cells/ml) and diluted 1:2 with same buffer with or without compound. The cells were added immediately to the wells (2.5×10^5 cells/well) and incubated for 30 minutes at 37° C. Following three washes with binding buffer, adherent cells were lysed and quantitated using a fluorometer.
IC50 is defined as the dose required to give 50% inhibition. The lower the IC50 value and the greater the percentage of inhibition, the more efficient the compound is at prevention of cell adhesion. A stands for inhibition in Table 1, and the percent inhibition indicates the inhibition of cell adhesion when compound is included in the assay at a concentration of 100 μM.

T1 sequence (P13612 34-1032): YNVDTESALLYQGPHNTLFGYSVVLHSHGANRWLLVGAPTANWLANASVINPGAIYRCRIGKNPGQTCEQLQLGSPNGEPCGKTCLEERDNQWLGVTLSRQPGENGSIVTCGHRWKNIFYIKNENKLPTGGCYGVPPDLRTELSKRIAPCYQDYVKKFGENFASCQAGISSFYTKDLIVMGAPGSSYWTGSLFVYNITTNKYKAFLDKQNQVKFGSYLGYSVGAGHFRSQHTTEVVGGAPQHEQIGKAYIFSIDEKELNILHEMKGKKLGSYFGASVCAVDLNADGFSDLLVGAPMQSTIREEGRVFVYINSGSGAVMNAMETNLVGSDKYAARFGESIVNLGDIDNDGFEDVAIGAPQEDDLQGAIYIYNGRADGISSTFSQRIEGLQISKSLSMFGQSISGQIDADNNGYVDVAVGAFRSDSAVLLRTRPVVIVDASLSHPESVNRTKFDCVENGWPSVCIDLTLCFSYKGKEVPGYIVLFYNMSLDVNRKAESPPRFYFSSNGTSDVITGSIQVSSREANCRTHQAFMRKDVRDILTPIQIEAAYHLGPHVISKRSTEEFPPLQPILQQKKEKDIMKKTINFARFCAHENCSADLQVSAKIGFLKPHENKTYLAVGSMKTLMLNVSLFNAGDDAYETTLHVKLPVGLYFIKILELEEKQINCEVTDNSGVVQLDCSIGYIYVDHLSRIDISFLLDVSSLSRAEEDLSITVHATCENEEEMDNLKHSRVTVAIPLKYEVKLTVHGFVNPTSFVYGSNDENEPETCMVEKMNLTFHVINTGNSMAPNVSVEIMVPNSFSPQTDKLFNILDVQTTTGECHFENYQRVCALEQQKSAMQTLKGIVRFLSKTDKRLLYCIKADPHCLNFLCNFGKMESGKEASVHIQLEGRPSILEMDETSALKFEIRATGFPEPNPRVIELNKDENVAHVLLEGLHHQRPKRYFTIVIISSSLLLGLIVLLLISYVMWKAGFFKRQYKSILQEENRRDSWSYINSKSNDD
T1 sequence (P05556 21-798): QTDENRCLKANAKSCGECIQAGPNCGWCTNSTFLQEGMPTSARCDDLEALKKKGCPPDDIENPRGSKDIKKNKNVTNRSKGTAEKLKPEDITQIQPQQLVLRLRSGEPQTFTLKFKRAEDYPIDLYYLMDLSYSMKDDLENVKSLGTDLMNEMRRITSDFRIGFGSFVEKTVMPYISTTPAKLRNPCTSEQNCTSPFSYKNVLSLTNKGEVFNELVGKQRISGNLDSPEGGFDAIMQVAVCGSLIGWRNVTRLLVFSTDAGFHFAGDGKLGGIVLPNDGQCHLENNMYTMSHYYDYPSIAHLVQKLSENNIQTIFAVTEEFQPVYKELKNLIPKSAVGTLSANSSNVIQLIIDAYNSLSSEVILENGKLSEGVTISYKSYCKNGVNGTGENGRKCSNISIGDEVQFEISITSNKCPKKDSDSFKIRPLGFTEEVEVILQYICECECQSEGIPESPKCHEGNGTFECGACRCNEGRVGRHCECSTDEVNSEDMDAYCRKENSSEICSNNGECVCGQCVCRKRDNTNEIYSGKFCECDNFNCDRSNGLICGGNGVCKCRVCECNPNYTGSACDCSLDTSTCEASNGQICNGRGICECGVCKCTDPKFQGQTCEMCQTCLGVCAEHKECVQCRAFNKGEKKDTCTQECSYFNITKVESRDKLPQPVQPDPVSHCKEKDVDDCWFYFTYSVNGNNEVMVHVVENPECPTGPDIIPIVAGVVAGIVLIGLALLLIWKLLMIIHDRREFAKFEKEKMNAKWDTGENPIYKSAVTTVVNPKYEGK

On to `COC(=O)NCCCC[C@H](NC(=O)N[C@@H](CC(=O)O)c1ccc2c(c1)OCO2)C(=O)NCc1ccc(OC)c(O)c1` [(9S,13S)-13-(1,3-benzodioxol-5-yl)-9-{[(3-hydroxy-4-methoxybenzyl)amino]carbonyl}-3,11-dioxo-2-oxa-4,10,12-triazapentadecan-15-oic acid], for which, under “Table 1”, the inhibition at 100 µM is 100% and the IC50 is 0.2 µM.

For `CCCCC(CSc1ccccc1)OC(=O)N[C@@H](CC(=O)O)c1ccc2c(c1)OCO2` (stereo partly drawn) [(3S)-3-(1,3-benzodioxol-5-yl)-3-{[({1-[(phenylsulfanyl)methyl]pentyl}oxy)carbonyl]amino}propanoic acid], for the setting “Table 1”, the inhibition at 100 µM is 100% and the IC50 is 6 µM.

With `CCCC[C@H](NC(=O)N[C@@H](CC(=O)O)c1ccc2c(c1)OCO2)C(=O)Nc1ccc(C(C)=O)cc1` [Compound 36, 3-(3S)-3-(1,3-benzodioxol-5-yl)-3-([((1S)-1-[(4-acetylphenyl)amino]carbonylpentyl)amino]carbonylamino)propanoic acid], the IC50 (Table 2) was 1 µM.

As to `COC(=O)NCCCC[C@H](NC(=O)N[C@@H](CC(=O)O)c1ccc2c(c1)OCO2)C(=O)NCCc1ccc(O)cc1` [(9S,13S)-13-(1,3-benzodioxol-5-yl)-9-{[(4-hydroxyphenethyl)amino]carbonyl}-3,11-dioxo-2-oxa-4,10,12-triazapentadecan-15-oic acid], for the setting “Table 1”, the inhibition at 100 µM was 100% and the IC50 is 6 µM.

`COc1ccc(CNC(=O)[C@H](CC(C)C)NC(=O)NC(CC(=O)O)c2ccc3c(c2)OCO3)cc1` (stereo partly drawn) [3-(1,3-benzodioxol-5-yl)-3-({[((1S)-1-{[(4-methoxybenzyl)amino]carbonyl}-3-methylbutyl)amino]carbonyl}amino)propanoic acid]: for the setting “Table 1”, the inhibition at 100 µM is 100% and the IC50 is 0.5 µM.

For `Cc1ccccc1NC(=O)Nc1ccc(CNC(=O)[C@H](CC(C)C)NC(=O)NC(CC(=O)O)c2ccc3c(c2)OCO3)cc1` (stereo partly drawn) [3-(1,3-benzodioxol-5-yl)-3-{[({(1S)-3-methyl-1-[({4-[(2-toluidinocarbonyl)amino]benzyl}amino)carbonyl]butyl}amino)carbonyl]amino}propanoic acid], where the note is “Table 1”, the inhibition at 100 µM was 100% and the IC50 is 0.02 µM.

Turning to `CCCC[C@@H](COCc1cccs1)NC(=O)N[C@@H](CC(=O)O)c1ccc2c(c1)OCO2` [Compound 22, (3S)-3-(1,3-benzodioxol-5-yl)-3-{[({(1S)-1-[(2-thienylmethoxy)methyl]pentyl}amino)carbonyl]amino}propanoic acid], for the setting “Table 1”, the inhibition at 100 µM is 100% and the IC50 was 1.5 µM.

Turning to `C[C@@H](CSc1ccccc1)NC(=O)N[C@@H](CC(=O)O)c1ccc2c(c1)OCO2` [(3S)-3-(1,3-benzodioxol-5-yl)-3-[({[(1S)-1-methyl-2-(phenylsulfanyl)ethyl]amino}carbonyl)amino]propanoic acid], where the note is “Table 1”, the inhibition at 100 µM was 100% and the IC50 is 3 µM.

Turning to `CC(C)[C@@H](CS(=O)(=O)Cc1ccccc1)NC(=O)NC(CC(=O)O)c1ccc2c(c1)OCO2` (stereo partly drawn) [3-(1,3-benzodioxol-5-yl)-3-{[({(1S)-1-[(benzylsulfonyl)methyl]-2-methylpropyl}amino)carbonyl]amino}propanoic acid], under “Table 1”, the inhibition at 100 µM is 92% and the IC50 was 35 µM.

For `COC(=O)NCCCC[C@@H](CSc1ccccc1)NC(=O)N[C@@H](CC(=O)O)c1ccc2c(c1)OCO2` [(9S,13S)-13-(1,3-benzodioxol-5-yl)-3,11-dioxo-9-[(phenylsulfanyl)methyl]-2-oxa-4,10,12-triazapentadecan-15-oic acid], where the note is “Table 1”, the inhibition at 100 µM was 100% and the IC50 was 0.4 µM.

Consider `CSCC[C@@H](CSc1ccccc1)NC(=S)N[C@@H](CC(=O)O)c1ccc2c(c1)OCO2` [(3S)-3-(1,3-benzodioxol-5-yl)-3-{[({(1S)-3-(methylsulfanyl)-1-[(phenylsulfanyl)methyl]propyl}amino)carbothioyl]amino}propanoic acid], for which, under “Table 1”, the inhibition at 100 µM is 100% and the IC50 is 3 µM.
